Measured values reported in article PMC4594923, “Food Polyphenols Fail to Cause a Biologically Relevant Reduction of COX-2 Activity” (PLoS ONE, 2015).

What was measured:
COX–2 [1] = target: T1, COX–2 (Homo sapiens, UniProt P35354); experiment: cell-free COX–2 enzyme assay (PGE2 formation, LC-MS); type: biochemical
T1 sequence (P35354 18-604): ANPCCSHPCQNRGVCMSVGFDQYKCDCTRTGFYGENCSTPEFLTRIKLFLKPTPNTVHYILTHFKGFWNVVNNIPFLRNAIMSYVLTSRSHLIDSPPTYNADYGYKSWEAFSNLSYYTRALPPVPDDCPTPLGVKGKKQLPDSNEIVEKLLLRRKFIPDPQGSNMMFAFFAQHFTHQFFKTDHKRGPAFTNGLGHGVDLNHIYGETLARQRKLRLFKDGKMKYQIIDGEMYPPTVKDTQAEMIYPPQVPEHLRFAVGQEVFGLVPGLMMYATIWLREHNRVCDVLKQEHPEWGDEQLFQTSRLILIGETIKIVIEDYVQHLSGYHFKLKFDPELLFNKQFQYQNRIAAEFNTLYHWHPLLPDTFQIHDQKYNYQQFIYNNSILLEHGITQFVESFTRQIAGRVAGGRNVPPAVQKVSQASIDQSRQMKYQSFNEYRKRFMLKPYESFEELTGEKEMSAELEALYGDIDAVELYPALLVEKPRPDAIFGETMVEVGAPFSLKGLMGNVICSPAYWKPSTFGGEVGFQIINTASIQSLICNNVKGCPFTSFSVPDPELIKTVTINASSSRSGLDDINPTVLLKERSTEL
Procedure: (§1) The in vitro assays were performed as described [6, 16, 18] and COX metabolites were quantified by LC-MS [18].
(§2) Primary human monocytes were freshly isolated from human blood. Blood was collected from healthy human subjects after written informed consent was obtained. […] After 24 h, the supernatant was sampled for LC-MS and cells were collected for the COX–2 expression analysis by Western Blotting.
(§3) GraphPad Prism 5.0 (GraphPad Software, San Diego, USA) was used for data analysis, the fitting of dose response curves and calculation of the IC50 values. Statistical differences were determined by Dunnetts test (LPS vs. other groups).

[2] = clinical chemistry in plasma (urea, creatinine, AST, ALT, LDH) in LPS induced sepsis in mice; type: in vivo, C57BL/6N mice; conditions: compound i. p. 100 mg/kg bw 2 h before LPS, 24 h after LPS
ovine recombinant COX–1 = target: T2, ovine recombinant COX–1 (Ovis aries, UniProt P05979); experiment: cell-free COX–1 enzyme assay (PGE2 formation, LC-MS); type: biochemical; set-up: purchased Cayman Chemicals/ Biomol, Hamburg, Germany
T2 sequence (P05979 25-600): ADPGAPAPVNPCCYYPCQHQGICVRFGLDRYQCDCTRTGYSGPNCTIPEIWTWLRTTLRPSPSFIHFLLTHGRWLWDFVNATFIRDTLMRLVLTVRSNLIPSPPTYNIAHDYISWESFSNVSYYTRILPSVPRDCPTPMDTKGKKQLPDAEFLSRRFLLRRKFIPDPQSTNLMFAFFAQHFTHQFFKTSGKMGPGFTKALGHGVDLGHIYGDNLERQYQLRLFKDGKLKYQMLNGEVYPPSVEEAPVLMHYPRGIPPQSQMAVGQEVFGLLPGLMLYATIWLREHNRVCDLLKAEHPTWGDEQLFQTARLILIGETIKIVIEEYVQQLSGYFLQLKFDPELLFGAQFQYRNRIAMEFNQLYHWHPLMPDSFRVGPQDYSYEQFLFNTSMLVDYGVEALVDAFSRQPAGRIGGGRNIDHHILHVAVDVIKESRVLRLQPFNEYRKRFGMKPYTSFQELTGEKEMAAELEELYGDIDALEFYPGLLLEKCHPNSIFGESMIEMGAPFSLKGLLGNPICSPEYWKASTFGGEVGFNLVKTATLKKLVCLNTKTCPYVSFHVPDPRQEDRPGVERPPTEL
Procedure: as §1, §2, §3

COX–2 [3] = target: T1, COX–2; experiment: PGE2 formation in HCA–7 cells (24 h, LC-MS); type: cell-based
Procedure: as §1
HCA–7 cells were incubated with sub-cytotoxic concentrations of the polyphenols dissolved in Tris buffered DMEM medium. Cytotoxicity of the polyphenols was evaluated by the lactate dehydrogenase leakage test (Cyto-Tox-ONE, Promega Mannheim, Germany). After 24 h the supernatant was collected for LC-MS analysis and the cells were harvested to analyze the COX–2 expression by Western Blotting.
After 24 h, the supernatant was sampled for LC-MS and cells were collected for the COX–2 expression analysis by Western Blotting.
as §3

[4] = test system: arachidonic acid (AA) cascade; experiment: plasma oxylipin/PG levels in LPS induced sepsis in mice; type: in vivo, C57BL/6N mice; conditions: plasma 24 h after LPS treatment; LPS +; mean;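 further: male C57BL/6N mice given LPS, plasma oxylipins quantified by LC-MS after solid-phase extraction, pretreatment or vehicle given intraperitoneally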
COX–2 protein = conditions: cited from earlier work
[5] = calculated based on PGE2, n = 3

In the case of `O=c1c(-c2ccc(O)cc2)coc2cc(O)cc(O)c12` [Genistein, genistein], the “effect on COX–2 dependent PGE2 formation, cell-free enzyme assay” value (COX–2 [1]) is reported as “no effect”, the “IC50 (95% CI), COX–2 enzyme assay” value (COX–2 [1]; [5]) is reported as “no effect (up to 30 μM)” and the “plasma ALT activity” value [2] is reported as “elevated”. The “plasma AST activity” value [2] was “elevated”, the “effect on COX–1 dependent PGE2 formation, cell-free enzyme assay” value (ovine recombinant COX–1) was “no effect” and the “IC50 (95% CI), COX–1 enzyme assay” value (ovine recombinant COX–1; [5]) was “no effect (up to 30 μM)”. The inhibition at 100 µM (COX–2 [3]; HCA-7, 100 μM, read-out: inhibition, HCA-7 cell line) was 54%, the “changes of PGE2 formation in HCA–7 cells” value (COX–2 [3]; non-cytotoxic concentrations, 24 h) was “affected” and the “1a,1b-dihomo-PGF2α concentration in plasma” value [4] was 0.33 nM. For the same compound, the “4,5-DiHDPE concentration in plasma” value [4] was 10 nM, the “4-HDHA concentration in plasma” value [4] was 2.0 nM and the “5(6)-EpETrE concentration in plasma” value [4] was 8.9 nM. The “5,6-DiHETrE concentration in plasma” value [4] was 0.72 nM, the “5-HEPE concentration in plasma” value [4] was 0.33 nM and the “5-HETE concentration in plasma” value [4] was 3.1 nM. For the same compound, the “5-iPF2α concentration in plasma” value [4] was under 0.50 nM, the “5-oxo-ETE concentration in plasma” value [4] was 1.2 nM and the “6-keto-PGF1α concentration in plasma” value [4] was 2.4 nM. The “7,8-DiHDPE concentration in plasma” value [4] was 1.1 nM, the “7-HDHA concentration in plasma” value [4] was 0.64 nM and the “8(9)-EpETrE concentration in plasma” value [4] was 2.3 nM. For the same compound, the “8,9-DiHETrE concentration in plasma” value [4] was 2.1 nM, the “8-HDHA concentration in plasma” value [4] was 4.0 nM and the “8-HEPE concentration in plasma” value [4] was 0.72 nM. The “8-HETE concentration in plasma” value [4] was 9.6 nM, the “8-iPF2a concentration in plasma” value [4] was 0.24 nM and the “9(10)-EpODE concentration in plasma” value [4] was 3.5 nM. For the same compound, the “9(10)-EpOME concentration in plasma” value [4] was 37 nM, the “9(10)-Epoxystearic acid concentration in plasma” value [4] was 31 nM and the “9,10,13-TriHOME concentration in plasma” value [4] was 1.5 nM. The “9,10-DiHODE concentration in plasma” value [4] was 4.8 nM, the “9,10-DiHOME concentration in plasma” value [4] was 63 nM and the “9,10-Dihydroxystearic acid concentration in plasma” value [4] was 15 nM. The “9,12,13-TriHOME concentration in plasma” value [4] was 9.6 nM, the “9-HODE concentration in plasma” value [4] was 96 nM and the “9-HOTrE concentration in plasma” value [4] was 4.1 nM. The “9-oxo-ODE concentration in plasma” value [4] was 16 nM, the “10(11)-EpDPE concentration in plasma” value [4] was 3.0 nM and the “10,11-DiHDPE concentration in plasma” value [4] was 0.90 nM. For the same compound, the “10-HDHA concentration in plasma” value [4] was 16 nM, the “11(12)-EpETrE concentration in plasma” value [4] was 2.7 nM and the “11,12-DiHETE concentration in plasma” value [4] was 0.19 nM. For the same compound, the “11,12-DiHETrE concentration in plasma” value [4] was 1.9 nM, the “11-HDHA concentration in plasma” value [4] was 1.2 nM and the “11-HETE concentration in plasma” value [4] was 2.7 nM. For the same compound, the “12(13)-EpODE concentration in plasma” value [4] was 1.8 nM, the “12(13)-EpOME concentration in plasma” value [4] was 34 nM and the “12,13-DiHODE concentration in plasma” value [4] was 4.7 nM. For the same compound, the “12,13-DiHOME concentration in plasma” value [4] was 214 nM, the “12-HEPE concentration in plasma” value [4] was 140 nM and the “12-HETE concentration in plasma” value [4] was 1200 nM. For the same compound, the “13(14)-EpDPE concentration in plasma” value [4] was 2.0 nM, the “13,14-DiHDPE concentration in plasma” value [4] was 0.96 nM and the “13,14-dihydro-15-keto-PGE1 concentration in plasma” value [4] was 0.18 nM. The “13,14dihydro-15-keto-PGF2α concentration in plasma” value [4] was 0.43 nM, the “13-HDHA concentration in plasma” value [4] was 2.8 nM and the “13-HODE concentration in plasma” value [4] was 240 nM. For the same compound, the “13-HOTrE concentration in plasma” value [4] was 15 nM, the “13-oxo-ODE concentration in plasma” value [4] was 2.7 nM and the “14(15)-EpETE concentration in plasma” value [4] was 0.21 nM. The “14(15)-EpETrE concentration in plasma” value [4] was 2.0 nM, the “14,15-DiHETE concentration in plasma” value [4] was 0.41 nM and the “14,15-DiHETrE concentration in plasma” value [4] was 4.3 nM. For the same compound, the “14-HDHA concentration in plasma” value [4] was 450 nM, the “15(16)-EpODE concentration in plasma” value [4] was 2.0 nM and the “15(S)-HETrE concentration in plasma” value [4] was 2.7 nM. For the same compound, the “15,16-DiHODE concentration in plasma” value [4] was 40 nM, the “15-HEPE concentration in plasma” value [4] was 0.96 nM and the “15-HETE concentration in plasma” value [4] was 5.1 nM. For the same compound, the “15-oxo-ETE concentration in plasma” value [4] was 0.42 nM, the “16(17)-EpDPE concentration in plasma” value [4] was 2.1 nM and the “16,17-DiHDPE concentration in plasma” value [4] was 2.2 nM. The “16-HDHA concentration in plasma” value [4] was 1.9 nM, the “17(18)-EpETE concentration in plasma” value [4] was 1.2 nM and the “17,18-DiHETE concentration in plasma” value [4] was 2.3 nM. For the same compound, the “17-HDHA concentration in plasma” value [4] was 21 nM, the “18-HEPE concentration in plasma” value [4] was 0.45 nM and the “19(20)-EpDPE concentration in plasma” value [4] was 14 nM. For the same compound, the “19,20-DiHDPE concentration in plasma” value [4] was 19 nM, the “20-HDHA concentration in plasma” value [4] was 3.7 nM and the “20-HEPE concentration in plasma” value [4] was 2.8 nM. The “20-HETE concentration in plasma” value [4] was 1.7 nM, the “EKODE concentration in plasma” value [4] was 9.9 nM and the “PGD2 concentration in plasma” value [4] was under 0.50 nM. For the same compound, the “PGE2 concentration in plasma” value [4] was 0.95 nM, the “PGF1α concentration in plasma” value [4] was 0.13 nM and the “PGF2α concentration in plasma” value [4] was 0.44 nM. For the same compound, the “TXB2 concentration in plasma” value [4] was 2.6 nM and the “COX–2 (protein) levels, RAW 264.7 cells” value (COX–2 protein) was “reduced”.
